≈ marks a conversion by molar mass, not a printed value.
System: HepG2
Test: Cytotoxicity against human HepG2 cells by MTT assay
Assay type: functional, cell-based

SMILES	IC50 [µg/mL]
COc1ccc([C@@H]2C[C@@H]3O[C@H]4[C@H](Oc5c(C)c(O)c(C)c(c53)O2)O[C@H](CO)[C@@H](O)[C@@H]4OC(C)=O)cc1	4.1 (≈ 8.16 µM)
COc1ccc([C@@H]2C[C@@H]3O[C@H]4[C@H](Oc5c(C)c(O)c(C)c(c53)O2)O[C@H](COC(C)=O)[C@@H](O)[C@@H]4O)cc1	3.5 (≈ 6.96 µM)
COc1ccc([C@@H]2C[C@@H](O)c3c(c(C)c4c(c3O[C@@H]3O[C@H](CO)[C@@H](O)[C@H](O)[C@H]3O)CO[C@H]3[C@H](O4)O[C@H](CO)[C@@H](O)[C@@H]3O)O2)cc1	3.1 (≈ 4.85 µM)
COc1ccc([C@@H]2C[C@@H]3O[C@H]4[C@H](Oc5c(C)c(O)c(C)c(c53)O2)O[C@H](CO)[C@@H](O)[C@@H]4O)cc1 [ABACOPTERIN C]	4 (≈ 8.69 µM)
O=c1[nH]cc(F)c(=O)[nH]1 [FLUOROURACIL]	1.3 (≈ 9.99 µM)
COc1ccc([C@@H]2C[C@@H](O)c3c(c(C)c(O[C@@H]4O[C@H](CO)[C@@H](O)[C@H](O)[C@H]4O)c(CO)c3O[C@@H]3O[C@H](CO)[C@@H](O)[C@H](O)[C@H]3O)O2)cc1 [TRIPHYLLIN A]	5.7 (≈ 8.68 µM)
